Results reported in US6949522B2, “β-2′- or 3′-halonucleosides” (Pharmasset, Inc., priority 2001, dated 2005).
Marks after values point to notes of the source that are not given here. One block for each compound: values may come before it.

Columns and labels:
[1] = tested on: human PBM cells; assay: in vitro; format: cell-based
Procedure: The compounds were evaluated for their potential toxic effects on uninfected PHA-stimulated human PBM cells, in CEM (T-lymphoblastoid cell line obtained from American Type Culture Collection, Rockville, Md.) and Vero (African green monkey kidney) cells. PBM cells were obtained from whole blood of healthy seronegative donors (HIV-1 and hepatitis B virus) by single-step Ficoll-Hypaque discontinous gradient centrifugation. […] All of the cells were plated in 96-well cell culture plates containing ten-fold serial dilutions of the test drug. […] At the end of incubation, MTT tetrazolium dye solution (Cell titer 96®, Promega, Madison, Wis.) was added to each well and incubated overnight. The reaction was stopped with stop solubilization solution (Promega, Madison, Wis.). The plates were incubated for 5 hours to ensure that the formazan crystals were dissolved. The plates were read at a wavelength of 570 nm using an ELISA plate reader (Bio-tek instruments, Inc., Winooski, Vt., Model # EL 312e). […] Bookmark not defined.

[2] = tested on: CEM (T-lymphoblastoid cell line); format: cell-based
Procedure: (§1) The compounds were evaluated for their potential toxic effects on uninfected PHA-stimulated human PBM cells, in CEM (T-lymphoblastoid cell line obtained from American Type Culture Collection, Rockville, Md.) and Vero (African green monkey kidney) cells. PBM cells were obtained from whole blood of healthy seronegative donors (HIV-1 and hepatitis B virus) by single-step Ficoll-Hypaque discontinous gradient centrifugation. Log phase Vero, CEM and PHA-stimulated human PBM cells were seeded at a density of 5×10^3, 2.5×10^3 and 5×10^4 cells/well respectively. All of the cells were plated in 96-well cell culture plates containing ten-fold serial dilutions of the test drug. The cultures were incubated for 3, 4 and 5 days for Vero, CEM, and PBM cells, respectively in a humidified 5% CO2-air at 37° C. At the end of incubation, MTT tetrazolium dye solution (Cell titer 96®, Promega, Madison, Wis.) was added to each well and incubated overnight. The reaction was stopped with stop solubilization solution (Promega, Madison, Wis.). The plates were incubated for 5 hours to ensure that the formazan crystals were dissolved. The plates were read at a wavelength of 570 nm using an ELISA plate reader (Bio-tek instruments, Inc., Winooski, Vt., Model # EL 312e). […] Bookmark not defined.

[3] = tested on: Vero (African green monkey kidney) cells; assay: in vitro; format: cell-based
Procedure: as §1

[4] = tested on: HIV-1LAI; assay: HIV assay in human PBM cells (RT activity of supernatant); format: cell-based; settings: 5 days, read-out: Anti-HIV-1 Activity (EC50)
Description: Human peripheral blood mononuclear (PBM) cells (obtained from Atlanta Red Cross) were isolated by Ficoll-Hypaque discontinuous gradient centrifugation from healthy seronegative donors. Cells were stimulated with phytohemagglutinin A (Difco, Sparks, Md.) for 2-3 days prior to use. HIV-1LAI obtained from the Centers for Disease Control and Prevention (Atlanta, Ga.) was used as the standard reference virus for the antiviral assays. The molecular infetious clones HIV-1xxBru and HIV-1M184Vpin were obtained from Dr. John Mellors (University of Pittsburgh). Infections were done in bulk for one hour, either with 100 TCID50/1×10^7 cells for a flask (T25) assay or with 200 TCID50/6×10^5 cells/well for a 24 well plate assay. Cells were added to a plate or flask containing a ten-fold serial dilution of the test compound. Assay medium was RPMI-1640 supplemented with heat inactivated 16% fetal bovine serum, 1.6 mM L-glutamine, 80 IU/ml penicillin, 80 μg/ml streptomycin, 0.0008% DEAE-Dextran, 0.045% sodium bicarbonate, and 26 IU/ml recombinant interleukin-2 (Chiron Corp, Emeryville, Calif.). AZT was used as a positive control for the assay. Untreated and uninfected PBM cells were grown in parallel at equivalent cell concentrations as controls. The cell cultures were maintained in a humidified 5% CO2-air at 37° C. for 5 days and supernatants were collected for reverse transcriptase (RT) activity.
Supernatants were centrifuged at 12,000 rpm for 2 hours to pellet the virus. The pellet was solubilized with vortexing in 100 μl virus solubilization buffer (VSB) containing 0.5% Triton X-100, 0.8 M NaCl, 0.5 mM phenylmethylsulfonyl fluoride, 20% glycerol, and 0.05 M Tris, pH 7.8. Ten μL of each sample were added to 75 μL RT reaction mixture (0.06 M Tris, pH 7.8, 0.012 M MgCl2, 0.006 M dithiothreitol, 0.006 mg/ml poly (rA)n, oligo (dT)12-18, 96 μg/ml dATP, and 1 μM of 0.08 mCi/ml ^3H-thymidine triphosphate (Moravek Biochemicals, Brea, Calif.) and incubated at 37° C. for 2 hours. The reaction was stopped by the addition of 100 μL 10% trichloroacetic acid containing 0.05% sodium pyrophosphate. The acid insoluble product was harvested onto filter paper using a Packard Harvester (Meriden, Conn.), and the RT activity was read on a Packard Direct Beta Counter (Meriden, Conn.). The RT results were expressed in counts per minute (CPM) per milliliter.

[5] = tested on: mitochondrial cytochrome C oxidase subunit II (COXII) gene; format: cell-based, human; settings: HepG2, 10 μM, 7 days
Description: The Q-RT-PCR technology was also used to evaluate potential mitochondrial γ-DNA polymerase inhibition by the compounds of the present invention in relevant human cells. […] Since active nucleoside compounds in the triphosphate form lack a 3′-OH, thereby stopping virus replication by chain termination, there is a concern that these nucleoside analogues are also substrates for the human DNA polymerase γ, resulting in inhibition of mitochondrial DNA replication and subsequently toxic side effects (11, 19). In an attempt to provide direct quantifiable data on mitochondrial DNA levels intracellular, a Q-PCR technology was designed and relative quantification of COXII DNA levels were calculated using the comparative Ct method. […] Also, in agreement with previous observations, no changes in normalized mitochondrial DNA levels were observed after FIAU and D4T treatment (6, 8, 23).
Low passage number HepG2 cells, obtained from American Tissue Culture Collection (ATCC, Manassas, Va.) were seeded at 5,000 cells/well in collagen-coated 96-well plates. Test compounds were added to the media to obtain a final concentration of 10 μM. On culture day 7, cellular nucleic acids were prepared by using commercially available columns (RNeasy 96 kit, Qiagen). […] The mitochondrial cytochrome C oxidase subunit II (COXII) gene and the β-actin or rRNA gene were amplified from 5 μL with a multiplex Q-PCR protocol using the suitable primers and probes for both target and reference (designed using the Primer Express software, Applied Biosystems); • for COXII. • sense primer 5′-[…]-3′ (Sequence 7); • probe 5′-TET-[…]-TAMRA-3′ (Sequence 8); and • antisense probe 5′-[…]-3′ (Sequence 9); • for exon 3 of β-actin (GenBank E01094): • sense primer 5′-[…]-3′ (Sequence 10); • probe 5′-6FAM-[…]-TAMRA-3′ (Sequnece 11); and • antisense probe 5′-[…]-3′ (Sequence 12).
The rRNA gene primers and probes were purchased from Applied Biosystems. Standard curves using 1-log diluted total HepG2 DNA were linear over more than 5 logs. In addition, efficiencies of target (COXII DNA) and reference (β-actin DNA or rRNA) amplification were approximately equal, because the slope of the ΔCt line (Ct β-actin minus Ct mitochondrial) was less than 0.1 (not shown). Since equal amplification efficiencies were obtained for both genes, the comparative cycle threshold (Ct) method was used to investigate potential inhibition of the mitochondrial DNA polymerase γ. The comparative Ct method uses arithmetic formulas in which the amount of target (COXII gene) is normalized to an endogenous reference (β-actin gene or rRNA gene) and is relative to a calibrator (no drug control at day 7). The arithmetic formula for this approach is given by 2-ΔΔCt (User bulletin # 2, Applied Biosystems).
In order to study the consequences of possible inhibitory effects of these compounds on host DNA polymerases, nuclear and rnitochondrial DNA levels were quantified and compared to no-treatment controls. Cells were incubated for 7 days with 10 μM of each compound, followed by total nucleic acid extractions and multiplex Q-PCR of the rRNA gene and the mitochondrial COXII gene. Nucleic acids from cells exposed to the control compounds were also amplified in multiplex for mitDNA and the β-actin gene. The results are presented in Table 4 using the comparative Ct method.

Compound: O=c1[nH]cnc2c1ncn2[C@@H]1S[C@H](CO)C=C1F [Compound D-28, (+)-9-[(1R,4S)-2,3-dideoxy-2,3-didehydro-2-fluoro-4-thio-β-D-ribofuranosyl]-hypoxanthine]
IC50 [1]: > 100 µM | IC50 [2]: > 100 µM | IC50 [3]: > 100 µM | EC50 [4]: 43.6 µM

Compound: Nc1nc2c(ncn2[C@@H]2S[C@H](CO)C=C2F)c(=O)[nH]1 [Compound D-32, (−)-9-[(1R,4S)-2,3-dideoxy-2,3-didehydro-2-fluoro-4-thio-β-D-ribofuranosyl]-guanosine]
IC50 [1]: > 100 µM | IC50 [2]: > 100 µM | IC50 [3]: > 100 µM | EC50 [4]: 80.5 µM

Compound: Nc1nc(F)nc2c1ncn2[C@@H]1S[C@H](CO)C=C1F [Compound D-33, (+)-9-[(1R,4S)-2,3-dideoxy-2,3-didehydro-2-fluoro-4-thio-β-D-ribofuranosyl]-2-fluoroadenosine]
IC50 [1]: 1.5 µM | IC50 [2]: 1.1 µM | IC50 [3]: 7.6 µM | EC50 [4]: 1.2 µM

Compound: Cc1cn([C@H]2S[C@@H](CO)C=C2F)c(=O)[nH]c1=O [Compound L-19, (+)-1-[(1S,4R)-2,3-dideoxy-2,3-didehydro-2-fluoro-4-thio-β-L-ribofuranosyl]-thymine]
IC50 [1]: > 100 µM | IC50 [2]: > 100 µM | IC50 [3]: > 100 µM | EC50 [4]: > 100 µM

Compound: O=c1ccn([C@H]2S[C@@H](CO)C=C2F)c(=O)[nH]1 [Compound L-20, (+)-1-[(1S,4R)-2,3-dideoxy-2,3-didehydro-2-fluoro-4-thio-β-L-ribofuranosyl]-uracil]
IC50 [1]: > 100 µM | IC50 [2]: > 100 µM | IC50 [3]: > 100 µM | EC50 [4]: > 100 µM

Compound: Nc1ncnc2c1ncn2[C@H]1S[C@@H](CO)C=C1F [Compound L-27, (−)-9-[(1S,4R)-2,3-dideoxy-2,3-didehydro-2-fluoro-4-thio-β-L-ribofuranosyl]adenine]
IC50 [1]: > 100 µM | IC50 [2]: > 100 µM | IC50 [3]: > 100 µM | EC50 [4]: 1.7 µM

Compound: O=c1[nH]cnc2c1ncn2[C@H]1S[C@@H](CO)C=C1F [Compound L-28, (−)-9-[(1S,4R)-2,3-dideoxy-2,3-didehydro-2-fluoro-4-thio-β-L-ribofuranosyl]-hypoxanthine]
IC50 [1]: > 100 µM | IC50 [2]: > 100 µM | IC50 [3]: > 100 µM | EC50 [4]: 15.5 µM

IC50 [1]: 13 µM | IC50 [2]: 10.4 µM | IC50 [3]: 66.1 µM
Compound: Nc1nc2c(ncn2[C@H]2S[C@@H](CO)C=C2F)c(=O)[nH]1 [Compound L-32, (+)-9-[(1S,4R)-2,3-dideoxy-2,3-didehydro-2-fluoro-4-thio-β-L-ribofuranosyl]-guanosine]

Compound: Cc1cn([C@H]2C=C[C@@H](CO)O2)c(=O)[nH]c1=O [D-D4T, β-D-2′,3′-didehydro-3′-deoxythymidine]
COXIINβ-actin DNA (range) relative to control ([5]; COXII DNA normalized to β-actin DNA, 2-ΔΔCt): 0.85 (0.79-0.88) | Average ΔCt ± SD COXII DNA [5]: 0.29 ± 0.01 | Average ΔΔCt ± SD COXII-β-actin [5]: 0.23 ± 0.04 | effect on (normalized) mitochondrial COXII DNA levels, in words [5]: no changes

Compound: Nc1ccn([C@H]2CC[C@@H](CO)O2)c(=O)n1 [D-ddC, β-D-2′,3′-dideoxycytidine]
COXIINrDNA (range) relative to control ([5]; COXII DNA normalized to rDNA, 2-ΔΔCt): 0.23 (0.15-0.37) | Average ΔΔCt ± SD COXII-rDNA [5]: 2.09 ± 0.65^d | Average ΔΔCt ± SD COXII-β-actin [5]: 2.9 ± 0.23^d | effect on (normalized) mitochondrial COXII DNA levels, in words [5]: reduce rnitochondrial COXII DNA levels

Compound: (−)-1-[(1S,4R)-2,3-dideoxy-2,3-didehydro-2-fluoro-4-thio-β-D-ribofuranosyl]-thymine [Compound D-19]
IC50 [1]: > 100 µM | IC50 [2]: > 100 µM | IC50 [3]: 53 µM | EC50 [4]: 92.3 µM

Compound: (−)-1-[(1S,4R)-2,3-dideoxy-2,3-didehydro-2-fluoro-4-thio-β-D-ribofuranosyl]-uracil [Compound D-20]
IC50 [1]: > 100 µM | IC50 [2]: > 100 µM | IC50 [3]: > 100 µM | EC50 [4]: > 100 µM
